Assay results reported in ChEMBL document CHEMBL1142757, “Synthesis and biological evaluation of novel angularly fused polycyclic coumarins” (2005).
Activity calls are given as the source filed them. No cut-off for these calls is given here.

Legend:
Rattus norvegicus [1] = assay: Antiinflammatory activity against Albino rat dosed at 200 mg/kg (3h); type: functional
Mus musculus [2] = assay: Analgesic activity against Swiss albino mice dosed at 300 mg/kg and activity calculated as percentage maximum possible effect (% MPE); type: functional
Rattus norvegicus [3] = assay: Antiinflammatory activity against Albino rat dosed at 300 mg/kg (3h); type: functional
Rattus norvegicus [4] = assay: Antiinflammatory activity against Albino rat dosed at 400 mg/kg (3h); type: functional
Mus musculus [5] = assay: Analgesic activity against Swiss albino mice dosed at 200 mg/kg and activity calculated as percentage maximum possible effect (% MPE); type: functional
Mus musculus [6] = assay: Analgesic activity against Swiss albino mice dosed at 400 mg/kg and activity calculated as percentage maximum possible effect (% MPE); type: functional
Rattus norvegicus [7] = assay: (§1) Antiinflammatory activity against Albino rat dosed at 100 mg/kg (3h); type: functional, organism-based; parameters: dose 100 mg/kg
Mus musculus [8] = assay: Analgesic activity against Swiss albino mice dosed at and activity calculated as percentage maximum possible effect (% MPE); type: functional
Rattus norvegicus [9] = assay: as §1; type: functional
Mus musculus [10] = assay: Analgesic activity against Swiss albino mice dosed at 100 mg/kg and activity calculated as percentage maximum possible effect (% MPE); No activity; type: functional, organism-based; parameters: dose 100 mg/kg
Rattus norvegicus [11] = assay: Antiinflammatory activity against Albino rat dosed at 200 mg/kg; type: functional
Rattus norvegicus [12] = assay: Antiinflammatory activity against Albino rat dosed at 400 mg/kg; type: functional
Rattus norvegicus [13] = assay: Antiinflammatory activity against Albino rat dosed at 300 mg/kg; type: functional

SMILES	inhibition in vivo at 200 mg/kg (Rattus norvegicus [1])	MPE (Mus musculus [2])	inhibition in vivo at 300 mg/kg (Rattus norvegicus [3])	inhibition in vivo at 400 mg/kg (Rattus norvegicus [4])	MPE (Mus musculus [5])	MPE (Mus musculus [6])	inhibition (Rattus norvegicus [7])	MPE (Mus musculus [8])	inhibition in vivo at 100 mg/kg (Rattus norvegicus [9])	MPE (Mus musculus [10])	inhibition in vivo at 200 mg/kg (Rattus norvegicus [11])	inhibition in vivo at 400 mg/kg (Rattus norvegicus [12])	inhibition in vivo at 300 mg/kg (Rattus norvegicus [13])
Cc1ccc2c(c1)oc(=O)c1c(C)nc3c4ccccc4oc3c12	80.7%	24.9%	88.7%	97%	22.9%	18.3%							
CC(=O)Oc1ccccc1C(=O)O [ASPIRIN]							inactive	74.9%					
Cc1nc2c3ccccc3oc2c2c1c(=O)oc1cc(Cl)ccc12	21.6%	7.3%	25.9%	27.4%	4.7%	9.2%							
CCc1nc2c3ccccc3oc2c2c1c(=O)oc1cc(OC)ccc12	35.7%	24.4%	78.1%	67.2%	24.3%	39.5%							
O=C(O)Cc1ccccc1Nc1c(Cl)cccc1Cl [DICLOFENAC SODIUM]									94.5%	inactive			
O=c1oc2cc(Cl)ccc2c2c1cnc1c3ccccc3oc12	19.2%	3.4%	26.3%	29.4%	1.8%	6.8%							
CCc1nc2c3ccccc3oc2c2c1c(=O)oc1cc(C)ccc12	35.4%	4.9%	41.7%	46.5%	2.4%	7.1%							
Cc1ccc2oc(=O)c3cnc4c5ccccc5oc4c3c2c1	89%	32.9%	96.3%	67.2%	20.9%	20.9%							
Cc1ccc2c(c1)oc(=O)c1cnc3c4ccccc4oc3c12		22.9%			1.3%	10.8%					24.6%	18.3%	31.4%
